How the values were obtained:
Type in all cases: in vivo
[1] = system: male Sgsh transgenic mice (MPS); assay: Open-field anxiety test in MPS mice (Sanfilippo A model); details: daily I.P. 21 days, nilotinib 10 mg/kg, bosutinib 5 mg/kg, 5 minute trial, FIG. 2C
Procedure: Open-field Anxiety: Mice were placed in the open field arena for 5 minutes. Animals were tracked by photocell beams along the arena floor. Data were collected and analyzed for the number of entries into the center zone of the arena, the total distance (cm) traveled within the center zone, the amount of time (sec) spent in the center zone, the total distance traveled (cm) in the peripheral wall zone of the arena, the amount of time spent (sec) in the wall zone, the total distance traveled (cm) during the 5 minute trial, the total time spent moving ‘total ambulatory time’ (sec) during the 5 minute trial, and the average velocity (cm/sec) during the 5 minute trial.

[2] = system: male Sgsh transgenic mice (MPS); assay: Post-treatment rotarod test in MPS mice (Sanfilippo A model); details: daily I.P. 21 days, nilotinib 10 mg/kg, bosutinib 5 mg/kg, vs DMSO and non-TG controls, FIG. 3
Procedure: (§1) Twelve 8-9 month old, male Sgsh transgenic mice (MPS) were used for all experiments and were compared to fourteen non-transgenic age-matched, littermates (non-TG). […] Treatment lasted for 21 days. At the end of the treatment period the mice underwent behavioral testing again and Western blot analysis was performed.
Rotarod: Mice were placed on the rotarod apparatus which sped up to 50 rpm, over the course of 5 minutes for 3-5 trials, with a minimum of 30 minutes rest between trials. Data collected were the time the animal remained ambulatory on the rotating rod, in seconds, labelled “latency to fall.” Data is also presented as “percentage difference” where all groups are normalized to the non-transgenic, untreated group, assuming non-transgenic, untreated animals are preforming at 100%.
(§2) Post-treatment rotarod MPS versus non-TG littermate mice: After the behavioral tests were conducted the symptomatic MPS mice were divided into three groups (n=4). […] There were three control groups made of age matched non-TG littermate controls (n=4, 5) which were treated in the same way. Behavioral tests were repeated and data collected is referred to as “post-treatment.” Since there was no significant difference between the control non-TG treatment groups, they were combined into one non-TG control group.

[3] = system: male Sgsh transgenic mice (MPS); assay: Open-field locomotion test in MPS mice (Sanfilippo A model); details: daily I.P. 21 days, nilotinib 10 mg/kg, bosutinib 5 mg/kg, FIG. 2C
Procedure: as §1
Open-field Locomotion: Mice were placed in the open field arena for 60 minutes. Animals were tracked by photocell beams along the arena floor. Data were collected and analyzed for total locomotion via total cm travelled. Other data collected were the total time spent moving ‘total ambulatory time’ (sec) during the 60 minute trial and the average velocity (cm/sec) during the 60 minute trial.
as §2

## Cc1cn(-c2cc(NC(=O)c3ccc(C)c(Nc4nccc(-c5cccnc5)n4)c3)cc(C(F)(F)F)c2)cn1 [nilotinib]
[1]
  anxiety (entries into center zone), open field: reduced anxiety (more entries into center zone, p<0.05)
[2]
  rotarod performance (latency to fall), post-treatment: perform better than the MPS mice treated with DMSO or bosutinib, and look more like the non-TG controls
[3]
  overall locomotion activity, open field: increased the overall locomotion (p<0.05) activity
